From US5659055A, “Cytoprotective fatty moiety compounds” (Virginia Commonwealth University, priority 1995, dated 1997)

How the values were obtained:
[1] = Autooxidation of phosphatidylethanolamine
[2] = test system: Human SF-PLA2 Induced Mouse Paw Edema; assay: Human SF-PLA2 induced mouse paw edema, oral administration; type: in vivo
Experimental: The mouse paw edema is inhibited in dose related fashion by increasing concentrations of RISE-1 given orally 1.0 hours before induction of the edema by SF-PLA2.

[3] = Oxidation of arachidonic acid (decreased turbidity and hydroperoxide formation)

SMILES | effect on the autooxidation of phosphatidylethanolamine [1] | oral antiinflammatory activity in this model of edema [2] | effect on the autooxidation of arachidonic acid [3]
CCCCC/C=C\C/C=C\CCCCCCCC(=O)OC(C/C=C\CCCCCCCC(=O)O)CCCCCC (stereo not drawn) [RALA, Ricinoleic acid--Linoleic Acid Ester] | effective inhibitors |  | 
CCCCCCCC/C=C\CCCCCCCCOC(=O)CCCCCCC/C=C\CC(CCCCCC)OC(=O)/C=C/C(=O)O (stereo not drawn) [OA1RAFA, Oleyl Alcohol-Ricinoleate-Fumaric Acid Diester] | effective inhibitors |  | 
CCCCCCC(C/C=C\CCCCCCCC(=O)O)OC(=O)CCCCCCCCC(=O)O (stereo not drawn) [RISE-1, Ricinoleic Acid--Sebacyl Ester] | no effect | has oral antiinflammatory activity | no effect
CCCCCCCC/C=C\CCCCCCCC(=O)OC(C/C=C\CCCCCCCC(=O)O)CCCCCC (stereo not drawn) [RAOA, Ricinoleic Acid--Oleic Acid Ester] | effective inhibitors |  | 
